What was measured:
[1] = test system: Penicillium expansum strain PE110048, pyrimethanil-resistant; experiment: Poison plate assay on glucose agar, strain PE110048; type: cell-based
Procedure: (§1) • Name of component (I): pyrimethanil • Name of component (II): hexanoic acid (=CH3—(CH2)n—COOH wherein n is 4) • Test setup: to each well of a 24-well microtiter plate, 2 ml of Glucose Agar (GA: 10 g glucose, 1.5 g K2HPO4, 2 g KH2PO4, 1 g (NH4)2SO4, 0.5 g MgSO4 and 12.5 g agar in 1 litre deionised water) is added. The test compounds pyrimethanil as well as an alkane carboxylic acid (II) are dissolved in DMSO at the appropriate concentration and added to the liquid agar in a 5 μl droplet each. The nutrient medium is inoculated with the test fungi by adding 2.5 µl of a spore/mycelium suspension. The microwell plates are then incubated in the dark at 20° C. and 60% relative humidity. The growth of the fungi is evaluated after two weeks, when the growth diameter of untreated controls has reached 15 mm.
(§2) After a suitable incubation period, colony diameters on the agar are measured. Percentage growth (not % effect, see below) is then calculated for each treatment by comparing the colony diameter with the diameter for untreated controls (which is 15 mm).
(§3) The effect of adding an alkane carboxylic acid of formula CH3—(CH2)n—COOH (wherein n is 4 to 7) to restore sensitivity of pyrimethanil-resistant or pyrimethanil-tolerant fungi to pyrimethanil was calculated using the Colby synergy formula (Colby S. R., Weeds (1967), 15(1), 20-22).
(§4) When a is the % growth (not the % activity) still observed under treatment with compound A alone at a given concentration and b is the % growth still observed under treatment with compound B alone at a given concentration, the expected growth exp under treatment with the combination of both compounds at the same concentrations is:
(§5) When the observed growth of the test pathogens under the combination is less than the expected growth, there is synergy.

[2] = test system: Penicillium expansum PE110091 (pyrimethanil-tolerant); experiment: Treatment of fruit (curative dip, Bio-apple Elstar); type: in vivo; conditions: for % effect after 6 days (observed) / % effect after 9 days (observed): apple Elstar, curative
Procedure: untreated apples or pears (details below), inoculated with fungal pathogens by wounding the fruits with a contaminated pricker on two spots, and incubated at 20° C. and 96% relative humidity.
Curative: fruits are first infected with a pricker and treated by dipping four hours later.
After a suitable incubation period, the diameters of the infected spots are measured with a calliper. The average diameter is calculated for all spots in the same treatment (between 14 and 40 spots per treatment, see below). Percentage effect of the treatment is then calculated by comparing the average spot diameter with the average for untreated controls.
The effect of adding an alkane carboxylic acid of formula CH3—(CH2)n—COOH (wherein n is 4 to 7) to restore sensitivity of pyrimethanil-resistant or pyrimethanil-tolerant fungi to pyrimethanil was calculated using the Limpel synergy formula (Limpel, L. E. et al. (1962) “Weed control by dimethyl tetrachloroterephthalate alone and in certain combinations”, Proceedings of the N. E. Weed Control Conference 16: 48-53). When a is the % effect obtained by compound A alone at a given concentration and b is the % effect obtained by compound B alone at a given concentration, the expected effect e of the combination of both compounds at the same concentrations is:
Pyrimethanil was added to tap water as a 40% commercially available PENBOTEC 400SC formulation to obtain a concentration of 100 ppm pyrimethanil. The alkanoic acid was added to tap water to obtain a 2000 ppm solution, or the alkanoic acid was added to the pyrimethanil composition with a concentration of 2000 ppm.
Fruit: Bio-apple “Elstar”
Pathogen: Penicillium expansum PE110091 (pyrimethanil-tolerant)
Repeats: Two wounds per fruit, 15 fruits per treatment
Evaluations: 17 March (6 days), 20 March (9 days) Average rot diameter untreated: 6 days: 21.3 mm 9 days: 36.0 mm

[3] = test system: Penicillium expansum strain PE110014, pyrimethanil-resistant; experiment: Poison plate assay on glucose agar, strain PE110014; type: cell-based
Procedure: as §1, §2, §3, §4, §5

[4] = test system: Penicillium expansum strain PE110030, pyrimethanil-resistant; experiment: Poison plate assay on glucose agar, strain PE110030; type: cell-based
Procedure: as §1, §2, §3, §4, §5

[5] = test system: Penicillium expansum PE110101; experiment: Pyrimethanil sensitivity of strain PE110101; type: cell-based; conditions: strain PE110101, pyrimethanil-sensitive
[6] = test system: Penicillium expansum strain PE110014; experiment: Pyrimethanil sensitivity of strain PE110014; type: cell-based; conditions: strain PE110014, pyrimethanil-resistant
[7] = test system: Penicillium expansum PE110091; experiment: Pyrimethanil sensitivity of strain PE110091; type: cell-based; conditions: strain PE110091, pyrimethanil-tolerant
[8] = test system: Penicillium expansum strain PE110048; experiment: Pyrimethanil sensitivity of strain PE110048; type: cell-based; conditions: strain PE110048, pyrimethanil-resistant
[9] = test system: Penicillium expansum strain PE110030; experiment: Pyrimethanil sensitivity of strain PE110030; type: cell-based; conditions: strain PE110030, pyrimethanil-resistant
[10] = hexanoic acid alone at 250, 500 and 750 ppm
[11] = pyrimethanil 10 ppm alone, two weeks
[12] = pyrimethanil 100 ppm alone (PENBOTEC 400SC)

## CCCCCC(=O)O [hexanoic acid]
[1]; hexanoic acid 250 ppm alone
  % growth (observed): 100%
[1]; hexanoic acid 500 ppm alone
  % growth (observed): 100%
[1]; hexanoic acid 750 ppm alone
  % growth (observed): 100%
[1]; [10]
  fungicidal effect (in words): no fungicidal effect
[2]; PE110091 on apple, hexanoic acid alone at 2000 ppm
  fungicidal effect (in words): little fungicidal effect
[2]; hexanoic acid 2000 ppm alone
  % effect after 6 days (observed): 15%
  % effect after 9 days (observed): 6%
[3]; hexanoic acid 250 ppm alone
  % growth (observed): 100%
[3]; hexanoic acid 500 ppm alone
  % growth (observed): 100%
[3]; hexanoic acid 750 ppm alone
  % growth (observed): 100%
[3]; [10]
  fungicidal effect (in words): no fungicidal effect
[4]; hexanoic acid 250 ppm alone
  % growth (observed): 100%
[4]; hexanoic acid 500 ppm alone
  % growth (observed): 100%
[4]; hexanoic acid 750 ppm alone
  % growth (observed): 100%
[4]; [10]
  fungicidal effect (in words): no fungicidal effect

## Cc1cc(C)nc(Nc2ccccc2)n1 [pyrimethanil, 4,6-dimethyl-N-phenyl-2-pyrimidinamine]
[1]; [11]
  % growth (observed): 53%
[5]
  EC50: 0.29 ppm
  EC95: 0.88 ppm
[6]
  EC50: 15.40 ppm
  EC95: > 100 ppm
[2]; [12]
  % effect after 6 days (observed): 19%
  % effect after 9 days (observed): 12%
[7]
  EC50: 5.01 ppm
  EC95: 74.99 ppm
[3]; [11]
  % growth (observed): 67%
[8]
  EC50: 22.39 ppm
  EC95: > 100 ppm
[9]
  EC50: 16.38 ppm
  EC95: > 100 ppm
[4]; [11]
  % growth (observed): 80%

— patent US20190069552A1, “METHOD TO CONTROL PYRIMETHANIL TOLERANT FUNGI” (Janssen Pharmaceutica NV, priority 2016, published 2019)
